Test results reported in patent US8063099B2, “Trans-3-aza-bicyclo[3.1.0]hexane derivatives” (Actelion Pharmaceuticals Ltd., priority 2007, dated 2011).

Columns and labels:
[1] = target: T1, human orexin-1 receptor (Homo sapiens, UniProt O43613); experiment: Intracellular calcium measurements (FLIPR), orexin receptor antagonistic activity; format: cell-based; conditions: FLIPR2; CHO cells expressing human orexin-1 receptor; 3 nM orexin-A; read-out: OX1 IC50
T1 construct: expressed in transfected cells; host or cells: Chinese hamster ovary (CHO) cells, G418 selection
T1 sequence (O43613 1-425): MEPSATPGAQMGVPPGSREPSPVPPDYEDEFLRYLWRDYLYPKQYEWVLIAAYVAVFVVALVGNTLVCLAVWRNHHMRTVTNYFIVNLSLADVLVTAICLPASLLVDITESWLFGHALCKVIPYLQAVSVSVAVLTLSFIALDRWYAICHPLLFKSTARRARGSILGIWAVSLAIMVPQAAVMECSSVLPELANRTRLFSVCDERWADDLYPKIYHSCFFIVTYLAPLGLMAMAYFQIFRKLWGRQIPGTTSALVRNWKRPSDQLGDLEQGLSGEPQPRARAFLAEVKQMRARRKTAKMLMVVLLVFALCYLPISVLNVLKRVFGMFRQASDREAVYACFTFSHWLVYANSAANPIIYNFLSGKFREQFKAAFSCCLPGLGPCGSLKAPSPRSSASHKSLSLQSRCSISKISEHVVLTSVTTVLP
Experimental: (§1) The orexin receptor antagonistic activity of the compounds of formula (I) is determined in accordance with one of the following experimental methods.
(§2) Intracellular Calcium Measurements:
(§3) Chinese hamster ovary (CHO) cells expressing the human orexin-1 receptor and the human orexin-2 receptor, respectively, are grown in culture medium (Ham F-12 with L-Glutamine) containing 300 μg/ml G418, 100 U/ml penicillin, 100 μg/ml streptomycin and 10% heat inactivated fetal calf serum (FCS). The cells are seeded at 20'000 cells/well into 384-well black clear bottom sterile plates (Greiner). The seeded plates are incubated overnight at 37° C. in 5% CO2.
(§4) Human orexin-A as an agonist is prepared as 1 mM stock solution in MeOH:water (1:1), diluted in HBSS containing 0.1% bovine serum albumin (BSA), NaHCO3:0.375 g/l and 20 mM HEPES for use in the assay at a final concentration of 3 nM.
(§5) Antagonists are prepared as 10 mM stock solution in DMSO, then diluted in 384-well plates, first in DMSO, then in HBSS containing 0.1% bovine serum albumin (BSA), NaHCO3: 0.375 g/l and 20 mM HEPES.
(§6) On the day of the assay, 50 μl of staining buffer (HBSS containing 1% FCS, 20 mM HEPES, NaHCO3: 0.375 g/l, 5 mM probenecid (Sigma) and 3 μM of the fluorescent calcium indicator fluo-4 AM (1 mM stock solution in DMSO, containing 10% pluronic) is added to each well.
(§7) The 384-well cell-plates are incubated for 50 min at 37° C. in 5% CO2 followed by equilibration at RT for 30-120 min before measurement.
(§8) Within the Fluorescent Imaging Plate Reader (FLIPR2 or FLIPR Tetra, Molecular Devices), antagonists are added to the plate in a volume of 10 μl/well, incubated for 10 min and finally 10 μl/well of agonist is added. Fluorescence is measured for each well at 1 second intervals, and the height of each fluorescence peak is compared to the height of the fluorescence peak induced by 3 nM orexin-A with vehicle in place of antagonist. For each antagonist, the IC50 value (the concentration of compound needed to inhibit 50% of the agonistic response) is determined. With the FLIPR Tetra, non-optimized and optimized conditions were used. Optimized conditions were achieved by adjustment of pipetting speed and cell splitting regime. The calculated IC50 values of the compounds may fluctuate depending on the daily cellular assay performance. Fluctuations of this kind are known to those skilled in the art.

[2] = target: T2, human orexin-2 receptor (Homo sapiens, UniProt O43614); experiment: as above; format: cell-based; conditions: FLIPR2; CHO cells expressing human orexin-2 receptor; 3 nM orexin-A; read-out: OX2 IC50
T2 construct: expressed in transfected cells; host or cells: Chinese hamster ovary (CHO) cells, G418 selection
T2 sequence (O43614 1-444): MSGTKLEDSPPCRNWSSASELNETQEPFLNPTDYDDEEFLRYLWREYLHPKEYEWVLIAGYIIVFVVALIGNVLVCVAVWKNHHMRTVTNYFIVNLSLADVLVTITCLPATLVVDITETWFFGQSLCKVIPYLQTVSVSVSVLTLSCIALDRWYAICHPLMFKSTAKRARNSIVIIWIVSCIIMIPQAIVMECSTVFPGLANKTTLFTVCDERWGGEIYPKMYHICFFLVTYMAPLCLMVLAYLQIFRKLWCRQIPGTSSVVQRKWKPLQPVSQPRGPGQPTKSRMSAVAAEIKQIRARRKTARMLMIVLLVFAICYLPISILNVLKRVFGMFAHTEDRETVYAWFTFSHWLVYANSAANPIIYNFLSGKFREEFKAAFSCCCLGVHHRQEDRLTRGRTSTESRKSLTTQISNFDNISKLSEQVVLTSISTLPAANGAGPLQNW
Experimental: as §1, §2, §3, §4, §5, §6, §7, §8

Row | Compound | IC50 [1] [nM] | IC50 [2] [nM]
1 | O=C(NC[C@@H]1[C@H]2C[C@H]2CN1C(=O)c1ccccc1-c1ccccc1)c1cccc2occc12 [Example 2, Benzofuran-4-carboxylic acid[(1S,2S,5R)-3-(biphenyl-2-carbonyl)-3-aza-bicyclo[3.1.0]hex-2-ylmethyl]-amide] | 34 | 102
2 | Cc1nc(C(=O)N2C[C@@H]3C[C@@H]3[C@H]2CNC(=O)c2c(C)nc3sccn23)c(-c2ccccc2C)s1 [Example 11, 6-Methyl-imidazo[2,1-b]thiazole-5-carboxylic acid[(1S,2S,5R)-3-(2-methyl-5-o-tolyl-thiazole-4-carbonyl)-3-aza-bicyclo[3.1.0]hex-2-ylmethyl]-amide] | 14 | 66
3 | Cc1nc2sccn2c1C(=O)NC[C@@H]1[C@H]2C[C@H]2CN1C(=O)c1ccccc1-c1ccccc1F [Example 19, 6-Methyl-imidazo[2,1-b]thiazole-5-carboxylic acid[(1S,2S,5R)-3-(2′-fluoro-biphenyl-2-carbonyl)-3-aza-bicyclo[3.1.0]hex-2-ylmethyl]-amide] | 22 | 174
4 | Cc1ncc(C(=O)N2C[C@@H]3C[C@@H]3[C@H]2CNC(=O)c2c(C)nc3sccn23)c(-c2ccccc2)n1 [Example 23, 6-Methyl-imidazo[2,1-b]thiazole-5-carboxylic Acid[(1S,2S,5R)-3-(2-methyl-4-phenyl-pyrimidine-5-carbonyl)-3-aza-bicyclo[3.1.0]hex-2-ylmethyl]-amide] | 35 | 338
5 | Cc1nc2sccn2c1C(=O)NC[C@@H]1[C@H]2C[C@H]2CN1C(=O)c1ccccc1-c1csc(N)n1 [Example 24, 6-Methyl-imidazo[2,1-b]thiazole-5-carboxylic acid{(1S,2S,5R)-3-[2-(2-amino-thiazol-4-yl)-benzoyl]-3-aza-bicyclo[3.1.0]hex-2-ylmethyl}-amide] | 102 | 647

More lines, now with the values ahead:

Row | IC50 [1] [nM] | IC50 [2] [nM] | Compound
6 | 4 | 27 | Cc1cccc(-c2sc(Br)nc2C(=O)N2C[C@@H]3C[C@@H]3[C@H]2CNC(=O)c2c(C)nc3sccn23)c1 [Example 29, 6-Methyl-imidazo[2,1-b]thiazole-5-carboxylic acid[(1S,2S,5R)-3-(2-bromo-5-m-tolyl-thiazole-4-carbonyl)-3-aza-bicyclo[3.1.0]hex-2-ylmethyl]-amide]
7 | 960 | 167 | Cc1nc2sccn2c1C(=O)NC[C@@H]1[C@H]2C[C@H]2CN1C(=O)c1ccccc1C1CCCCC1 [Example 31, 6-Methyl-imidazo[2,1-b]thiazole-5-carboxylic acid[(1S,2S,5R)-3-(2-cyclohexyl-benzoyl)-3-aza-bicyclo[3.1.0]hex-2-ylmethyl]-amide]
8 | 15 | 55 | Cc1nc2sccn2c1C(=O)NC[C@@H]1[C@H]2C[C@H]2CN1C(=O)c1ccccc1-c1cccs1 [Example 32, 6-Methyl-imidazo[2,1-b]thiazole-5-carboxylic acid[(1S,2S,5R)-3-(2-thiophen-2-yl-benzoyl)-3-aza-bicyclo[3.1.0]hex-2-ylmethyl]-amide]
9 | 85 | 35 | Cc1nc(-c2cccc(F)c2)c(C(=O)N2C[C@@H]3C[C@@H]3[C@H]2CNC(=O)c2c(C)nc3sccn23)s1 [Example 37, 6-Methyl-imidazo[2,1-b]thiazole-5-carboxylic acid{(1S,2S,5R)-3-[4-(3-fluoro-phenyl)-2-methyl-thiazole-5-carbonyl]-3-aza-bicyclo[3.1.0]hex-2-ylmethyl}-amide]
10 | 49 | 12 | Cc1cccc(-c2sc(C)nc2C(=O)N2C[C@@H]3C[C@@H]3[C@H]2CNC(=O)c2cc(F)cc3c2OCOC3)c1 [Example 42, 6-Fluoro-4H-benzo[1,3]dioxine-8-carboxylic Acid[(1S,2S,5R)-3-(2-methyl-5-m-tolyl-thiazole-4-carbonyl)-3-aza-bicyclo[3.1.0]hex-2-ylmethyl]-amide]
